Laboratory results published in ChEMBL document CHEMBL3244164, “Synthesis and analgesic activity of 1,3-dihydro-3-(substituted phenyl)imidazo[4,5-b]pyridin-2-ones and 3-(substituted phenyl)-1,2,3-triazolo[4,5-b]pyridines” (J Med Chem, 1978).
Active and inactive are the calls of the source.

Experiments:
Rattus norvegicus [1] = experiment: Analgesic activity in Sprague-Dawley rat brewer's yeast treated foot assessed as response threshold at 16 to 32 mg/kg, po; format: functional; details: dose mg/kg 16-32
Rattus norvegicus [2] = experiment: Analgesic activity in Sprague-Dawley rat normal foot assessed as response threshold at 8 to 16 mg/kg, po; format: functional; details: dose mg/kg 8-16
Rattus norvegicus [3] = experiment: Analgesic activity in Sprague-Dawley rat brewer's yeast treated foot assessed as response threshold at 8 mg/kg, po; format: functional
Rattus norvegicus [4] = experiment: Analgesic activity in Sprague-Dawley rat assessed as increase in mean reaction time at 5 mg/kg, po after 1 hr relative to control; format: functional
Rattus norvegicus [5] = experiment: Analgesic activity in Sprague-Dawley rat assessed as increase in mean reaction time at 5 mg/kg, po after 2 hrs relative to control; format: functional
Rattus norvegicus [6] = experiment: Analgesic activity in Sprague-Dawley rat assessed as increase in mean reaction time at 5 mg/kg, po after 3 hrs relative to control; format: functional
Rattus norvegicus [7] = experiment: Analgesic activity in Sprague-Dawley rat assessed as increase in mean reaction time at 5 mg/kg, po after 4 hrs relative to control; format: functional
Rattus norvegicus [8] = experiment: Analgesic activity in Sprague-Dawley rat assessed as increase in mean reaction time at 5 mg/kg, po after 5 hrs relative to control; format: functional
Rattus norvegicus [9] = experiment: Analgesic activity in Sprague-Dawley rat assessed as increase in mean reaction time at 10 mg/kg, po after 1 hr relative to control; format: functional
Rattus norvegicus [10] = experiment: Analgesic activity in Sprague-Dawley rat assessed as increase in mean reaction time at 10 mg/kg, po after 2 hrs relative to control; format: functional
Rattus norvegicus [11] = experiment: Analgesic activity in Sprague-Dawley rat assessed as increase in mean reaction time at 10 mg/kg, po after 3 hrs relative to control; format: functional
Rattus norvegicus [12] = experiment: Analgesic activity in Sprague-Dawley rat assessed as increase in mean reaction time at 10 mg/kg, po after 4 hrs relative to control; format: functional
Rattus norvegicus [13] = experiment: Analgesic activity in Sprague-Dawley rat assessed as increase in mean reaction time at 10 mg/kg, po after 5 hrs relative to control; format: functional
Rattus norvegicus [14] = experiment: Analgesic activity in Sprague-Dawley rat assessed as increase in mean reaction time at 20 mg/kg, po after 1 hr relative to control; format: functional
Rattus norvegicus [15] = experiment: Analgesic activity in Sprague-Dawley rat assessed as increase in mean reaction time at 20 mg/kg, po after 2 hrs relative to control; format: functional
Rattus norvegicus [16] = experiment: Analgesic activity in Sprague-Dawley rat assessed as increase in mean reaction time at 20 mg/kg, po after 3 hrs relative to control; format: functional
Rattus norvegicus [17] = experiment: Analgesic activity in Sprague-Dawley rat assessed as increase in mean reaction time at 20 mg/kg, po after 4 hrs relative to control; format: functional
Rattus norvegicus [18] = experiment: Analgesic activity in Sprague-Dawley rat assessed as increase in mean reaction time at 20 mg/kg, po after 5 hrs relative to control; format: functional
Mus musculus [19] = experiment: Analgesic activity in naloxone treated mouse assessed as withdrawal latency at 12.5 to 75 mg/kg, po; format: functional, organism-based
Mus musculus [20] = experiment: Analgesic activity in mouse assessed as withdrawal latency at 12.5 to 75 mg/kg, po by Haffner tail clamp method; format: functional, organism-based
Rattus norvegicus [21] = experiment: Antiinflammatory activity in Sprague-Dawley rat assessed as inhibition of carrageenan-induced paw edema at 30 mg/kg, po; format: functional
Rattus norvegicus [22] = experiment: Antiarthritic activity in Lewis rat assessed as inhibition of adjuvant-induced paw swelling at 50 mg/kg, po qd for 13 days measured on day 14; format: functional
Rattus norvegicus [23] = experiment: Analgesic activity in Sprague-Dawley rat normal foot assessed as response threshold at 32 mg/kg, po; format: functional

Which Activity (Rattus norvegicus [1]) does the source give for `Cn1c(=O)n(-c2ccc3c(c2)OCO3)c2ncccc21` here?
The Activity was >25 mm.

And the Activity (Rattus norvegicus [2])?
Its Activity is >50 mm.

For `O=c1[nH]c2cccnc2n1-c1ccc2c(c1)OCO2`, which Activity (Rattus norvegicus [3]) is on record?
The Activity was >34 mm.

What about the Activity (Rattus norvegicus [2]) of the same compound?
Its Activity is >50 mm.

And the Time (Rattus norvegicus [4])?
The Time was 1.5 s.

And the Time (Rattus norvegicus [5])?
The Time was 2.1 s.

And the Time (Rattus norvegicus [6])?
Its Time is -0.1 s.

And the Time (Rattus norvegicus [7])?
The Time was 1.3 s.

And the Time (Rattus norvegicus [8])?
The Time was 0.4 s.

What about the Time (Rattus norvegicus [9]) of the same compound?
Its Time is 2 s.

And the Time (Rattus norvegicus [10])?
The Time was 3.9 s.

And the Time (Rattus norvegicus [11])?
Its Time is 2.8 s.

And the Time (Rattus norvegicus [12])?
The Time was 2.3 s.

And the Time (Rattus norvegicus [13])?
Its Time is -0.2 s.

What about the Time (Rattus norvegicus [14]) of the same compound?
Its Time is 6 s.

What about the Time (Rattus norvegicus [15]) of the same compound?
The Time was 15 s.

What about the Time (Rattus norvegicus [16]) of the same compound?
Its Time is 20.4 s.

What about the Time (Rattus norvegicus [17]) of the same compound?
Its Time is 20 s.

What about the Time (Rattus norvegicus [18]) of the same compound?
The Time was 18.3 s.

What about the Activity (Mus musculus [19]) of the same compound?
Its Activity is “inactive”.

What about the Activity (Mus musculus [20]) of the same compound?
The Activity was “Active”.

And the inhibition in vivo at 30 mg/kg (Rattus norvegicus [21])?
The inhibition in vivo at 30 mg/kg was 37%.

And the inhibition in vivo at 50 mg/kg (Rattus norvegicus [22])?
The inhibition in vivo at 50 mg/kg was 68.3%.

`CC(C)n1c(=O)n(-c2ccc3c(c2)OCO3)c2ncccc21` was tested. Which Activity (Rattus norvegicus [3]) did it give?
Its Activity is >34 mm.

What about the Activity (Rattus norvegicus [2]) of the same compound?
The Activity was >50 mm.

With `CN1CC[C@]23c4c5ccc(O)c4O[C@H]2[C@@H](O)C=C[C@H]3[C@H]1C5` [MORPHINE] as the compound, how does the Activity (Rattus norvegicus [3]) read?
Its Activity is >34 mm.

And the Activity (Rattus norvegicus [23])?
Its Activity is <40 mm.

What about the Activity (Rattus norvegicus [2]) of the same compound?
The Activity was >50 mm.
